The results in this text go back to PubChem BioAssay (NCI).

Some test systems named below: A549 NSCLC; COLO 205 colon; NCI-H460 lung; NCI/ADR-RES ovarian; OVCAR-4 ovarian; SF-539 CNS; SK-OV-3 ovarian; T-47D breast.
Test in all cases: inhibition of tumour cell growth, NCI panel, 48 h

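Each compound was tested at five concentrations against cells in 96-well plates for 48 hours. Abbreviation: GI50, concentration required for 50% inhibition of growth. The concentration for full growth arrest is given as TGI.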

Consider `CC1=Cc2ccc(C)cc2C(=O)C1=O`, for which the TGI in the experiment on A549 NSCLC came out at 50.2 µM; with COLO 205 colon, 16.3 µM; with NCI-H460 lung, 41 µM; in the experiment on NCI/ADR-RES ovarian, 46.8 µM; with OVCAR-4 ovarian it was 32 µM; with SF-539 CNS it was 14.9 µM. Moreover, the TGI in the experiment on SK-OV-3 ovarian is 27 µM; with T-47D breast it was 5.36 µM.

Turning to `Cc1nc(Nc2cccnc2)sc1C(=O)/C=C/c1ccc(Cl)cc1`, the GI50 is 3.32 µM in the experiment with A549 NSCLC; 2.53 µM in the experiment on COLO 205 colon; 3.5 µM with NCI-H460 lung; 3.03 µM in the experiment on NCI/ADR-RES ovarian; 5.14 µM with OVCAR-4 ovarian; 2.03 µM with SF-539 CNS. Moreover, the values for the GI50 in the experiment with SK-OV-3 ovarian and with T-47D breast were 3.88 µM and 2.57 µM, respectively. The TGI in the experiment with A549 NSCLC is over 100 µM; in the experiment on COLO 205 colon, 6.47 µM; in the experiment with NCI-H460 lung, 13.8 µM; in the experiment on NCI/ADR-RES ovarian it was 11.1 µM; with OVCAR-4 ovarian it was over 100 µM; with SF-539 CNS, 5.26 µM. Besides, the TGI is over 100 µM in the experiment on SK-OV-3 ovarian and 29.4 µM in the experiment with T-47D breast.

Regarding `CCN(c1cc(-c2ccc(CN3CCOCC3)cc2)cc(C(=O)NCc2c(C)cc(C)[nH]c2=O)c1C)C1CCOCC1`, the GI50 with A549 NSCLC was 33.5 µM; in the experiment on COLO 205 colon it was 18.1 µM; in the experiment on NCI-H460 lung it was 25.5 µM; in the experiment on NCI/ADR-RES ovarian, 36.2 µM; with OVCAR-4 ovarian, 25.9 µM; in the experiment with SF-539 CNS, 16.3 µM. The GI50 in the experiment with SK-OV-3 ovarian was 52.9 µM; in the experiment with T-47D breast, 18.9 µM. Also, the TGI with A549 NSCLC was over 100 µM; in the experiment with COLO 205 colon it was 34.9 µM; in the experiment with NCI-H460 lung, over 66.8 µM; in the experiment on NCI/ADR-RES ovarian, over 100 µM; in the experiment on OVCAR-4 ovarian it was 97.2 µM; with SF-539 CNS, 33.2 µM. For the same compound, the values for the TGI in the experiment with SK-OV-3 ovarian and in the experiment with T-47D breast were over 100 µM and 53.4 µM, respectively.

With `O=c1[nH]c2nc(NC3CCOCC3)ncc2cc1Oc1ccc(F)cc1F`, the GI50 in the experiment with A549 NSCLC, in the experiment on COLO 205 colon, in the experiment with NCI-H460 lung, in the experiment on NCI/ADR-RES ovarian, in the experiment on OVCAR-4 ovarian and in the experiment on SF-539 CNS was over 25 µM in each case. For the same compound, the GI50 in the experiment on SK-OV-3 ovarian and with T-47D breast was over 25 µM each time. In addition, the TGI in the experiment with A549 NSCLC, with COLO 205 colon, in the experiment with NCI-H460 lung, with NCI/ADR-RES ovarian, in the experiment with OVCAR-4 ovarian and with SF-539 CNS was over 25 µM throughout. For the same compound, the TGI with SK-OV-3 ovarian and in the experiment with T-47D breast was over 25 µM in each case.

For the compound `O=C(Nc1ccc(-c2nc(-c3cccc(OCCN4CCOCC4)c3)c(-c3ccnc(Br)c3)[nH]2)cc1)c1ccccc1`, the GI50 is 2.25 µM in the experiment on A549 NSCLC; 2.81 µM in the experiment on NCI-H460 lung; 5.2 µM in the experiment on NCI/ADR-RES ovarian; 1.23 µM in the experiment on SF-539 CNS; 2.15 µM in the experiment on SK-OV-3 ovarian; 2.22 µM in the experiment with T-47D breast. For the same compound, the TGI in the experiment with A549 NSCLC is over 100 µM; in the experiment with NCI-H460 lung, 9.3 µM; in the experiment on NCI/ADR-RES ovarian it was over 100 µM; in the experiment with SF-539 CNS, 3.71 µM; in the experiment with SK-OV-3 ovarian, 4.79 µM; in the experiment on T-47D breast, over 100 µM.

As for `O=C(NCCc1ccccn1)OCc1nc2nc(Cl)nc(N3CCOCC3)c2[nH]1`, the GI50 in the experiment on A549 NSCLC was 7.16 µM; in the experiment on COLO 205 colon it was 2.44 µM; with NCI-H460 lung, 3.12 µM; in the experiment with NCI/ADR-RES ovarian, 1.44 µM; with OVCAR-4 ovarian it was 1.7 µM; in the experiment with SF-539 CNS, 1.5 µM. The GI50 in the experiment with SK-OV-3 ovarian is 6.11 µM; in the experiment with T-47D breast, 2.13 µM. The TGI amounted to 24.9 µM with A549 NSCLC; 6.12 µM in the experiment on COLO 205 colon; 11.1 µM with NCI-H460 lung; 6.22 µM in the experiment with NCI/ADR-RES ovarian; 3.85 µM with OVCAR-4 ovarian; 2.85 µM with SF-539 CNS. Also, the results for the TGI in the experiment on SK-OV-3 ovarian and with T-47D breast were 19.5 µM and 6.48 µM, respectively.

In the case of `COc1ccc(C(O)c2cc3c(N)c(C(=O)Nc4cccc(Cl)c4)sc3nc2C)cc1` (centres undefined), the GI50 in the experiment with A549 NSCLC was 1.45 µM; with COLO 205 colon, 2.79 µM; with NCI-H460 lung, 1.06 µM; in the experiment with NCI/ADR-RES ovarian, 1.11 µM; in the experiment on OVCAR-4 ovarian, 2.59 µM; in the experiment with SF-539 CNS, 0.858 µM. The results for the GI50 with SK-OV-3 ovarian and with T-47D breast were 1.78 µM and 1.15 µM, respectively. For the same compound, the TGI was over 39.7 µM with A549 NSCLC; 25.2 µM in the experiment with COLO 205 colon; 5.53 µM in the experiment with NCI-H460 lung; over 36.1 µM with NCI/ADR-RES ovarian; over 51.7 µM in the experiment with OVCAR-4 ovarian; over 40.5 µM in the experiment with SK-OV-3 ovarian. In the experiment with T-47D breast, this compound displayed a TGI of 31.9 µM.

With `C1CC2CN(CCCN3CCOCC3)C(C1)O2` (centres undefined), the TGI in the experiment on A549 NSCLC, with COLO 205 colon, with NCI-H460 lung, in the experiment with NCI/ADR-RES ovarian, in the experiment with OVCAR-4 ovarian and in the experiment with SF-539 CNS was over 100 µM each time. For the same compound, the TGI in the experiment with SK-OV-3 ovarian and in the experiment with T-47D breast was over 100 µM throughout.

As to `c1ccc(-c2nc(N3CCOCC3)c3c4c(sc3n2)CCCCCC4)nc1`, the GI50 was 3.57 µM in the experiment on A549 NSCLC; 9.4 µM in the experiment on COLO 205 colon; 3.68 µM in the experiment with NCI-H460 lung; 0.836 µM in the experiment with NCI/ADR-RES ovarian; 4.85 µM in the experiment on OVCAR-4 ovarian; 13 µM in the experiment on SF-539 CNS. For the same compound, the GI50 in the experiment with SK-OV-3 ovarian is 9.25 µM; in the experiment with T-47D breast it was 4.46 µM. The TGI with A549 NSCLC was determined as 15.9 µM; with COLO 205 colon, 22.3 µM; in the experiment with NCI-H460 lung, 16 µM; in the experiment with NCI/ADR-RES ovarian, 18.2 µM; with OVCAR-4 ovarian it was 80.3 µM; in the experiment with SF-539 CNS, 26.7 µM. The TGI was found to be 22.5 µM in the experiment with SK-OV-3 ovarian and 22.7 µM in the experiment with T-47D breast.

Regarding `Cc1nn2c(/C=C3/C(=O)Nc4cc(Cl)ccc43)c(-c3ccccc3)nc2s1`, the GI50 in the experiment with A549 NSCLC is 3.28 µM; in the experiment on COLO 205 colon, 74.4 µM; in the experiment on NCI-H460 lung, 3.72 µM; in the experiment with NCI/ADR-RES ovarian it was 3.54 µM; in the experiment with OVCAR-4 ovarian it was 1.59 µM; in the experiment with SF-539 CNS, 1.71 µM. Also, the GI50 with SK-OV-3 ovarian was 14.3 µM; with T-47D breast, 1.75 µM. Moreover, the TGI is 14.9 µM in the experiment on A549 NSCLC; over 100 µM in the experiment with COLO 205 colon; over 100 µM in the experiment on NCI-H460 lung; over 100 µM with NCI/ADR-RES ovarian; 3.39 µM with OVCAR-4 ovarian; 3.46 µM in the experiment with SF-539 CNS. Also, the TGI in the experiment on SK-OV-3 ovarian is over 100 µM; in the experiment with T-47D breast it was 4.04 µM.
